Laboratory results taken from patent US11419869B2, “Dosage forms and regimens for amino acid compounds” (Pliant Therapeutics, Inc., priority 2019, dated 2022).

biological target: recombinant human integrin αvβ6 (Homo sapiens (Human), UniProt P06756+P18564); assay: Solid Phase Integrin αvβ6 Binding Assay (Examples B1, B2); conditions: TGFβ1 LAP ligand, values given in four ranges, read-out: αvβ6 Inhibition IC50 (nM)-range
Outline: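 Plates coated with recombinant human αvβ6 (2 μg/mL) compete compound against recombinant TGFβ1 LAP (0.67 μg/mL) in TBS binding buffer with 0.5 mM MnCl2, 2 h at 25 °C. Bound LAP detected with biotin-anti-hLAP and peroxidase-streptavidin; IC50 by four-parameter logistic regression.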

Chain of recombinant human integrin αvβ6 (P06756 31-992): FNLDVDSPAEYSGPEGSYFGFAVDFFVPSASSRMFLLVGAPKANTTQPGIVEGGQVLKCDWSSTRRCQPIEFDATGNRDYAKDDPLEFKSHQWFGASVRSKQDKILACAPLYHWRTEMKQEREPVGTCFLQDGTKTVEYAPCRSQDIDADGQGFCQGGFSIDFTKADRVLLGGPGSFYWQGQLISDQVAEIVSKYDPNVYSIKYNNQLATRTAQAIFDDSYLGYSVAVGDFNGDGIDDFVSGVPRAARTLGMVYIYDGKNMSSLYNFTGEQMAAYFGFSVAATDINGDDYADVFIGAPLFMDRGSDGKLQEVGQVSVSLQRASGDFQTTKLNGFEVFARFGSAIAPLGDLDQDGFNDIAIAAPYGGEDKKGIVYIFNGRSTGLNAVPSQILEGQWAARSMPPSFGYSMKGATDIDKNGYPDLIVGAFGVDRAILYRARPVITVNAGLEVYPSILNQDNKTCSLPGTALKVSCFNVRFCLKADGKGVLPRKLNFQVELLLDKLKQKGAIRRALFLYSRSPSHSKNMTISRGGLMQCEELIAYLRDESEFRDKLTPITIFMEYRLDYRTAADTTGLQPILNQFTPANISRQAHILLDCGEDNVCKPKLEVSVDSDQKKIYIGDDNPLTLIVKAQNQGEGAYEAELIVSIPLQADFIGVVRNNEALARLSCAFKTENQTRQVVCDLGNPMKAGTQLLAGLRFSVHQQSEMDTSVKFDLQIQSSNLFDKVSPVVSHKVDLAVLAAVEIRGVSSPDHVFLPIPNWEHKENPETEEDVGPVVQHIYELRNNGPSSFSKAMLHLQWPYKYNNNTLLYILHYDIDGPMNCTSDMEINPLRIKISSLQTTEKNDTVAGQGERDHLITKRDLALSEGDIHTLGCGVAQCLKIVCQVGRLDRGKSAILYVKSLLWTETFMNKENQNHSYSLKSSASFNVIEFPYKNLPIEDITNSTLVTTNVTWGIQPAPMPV
Chain of recombinant human integrin αvβ6 (P18564 22-707): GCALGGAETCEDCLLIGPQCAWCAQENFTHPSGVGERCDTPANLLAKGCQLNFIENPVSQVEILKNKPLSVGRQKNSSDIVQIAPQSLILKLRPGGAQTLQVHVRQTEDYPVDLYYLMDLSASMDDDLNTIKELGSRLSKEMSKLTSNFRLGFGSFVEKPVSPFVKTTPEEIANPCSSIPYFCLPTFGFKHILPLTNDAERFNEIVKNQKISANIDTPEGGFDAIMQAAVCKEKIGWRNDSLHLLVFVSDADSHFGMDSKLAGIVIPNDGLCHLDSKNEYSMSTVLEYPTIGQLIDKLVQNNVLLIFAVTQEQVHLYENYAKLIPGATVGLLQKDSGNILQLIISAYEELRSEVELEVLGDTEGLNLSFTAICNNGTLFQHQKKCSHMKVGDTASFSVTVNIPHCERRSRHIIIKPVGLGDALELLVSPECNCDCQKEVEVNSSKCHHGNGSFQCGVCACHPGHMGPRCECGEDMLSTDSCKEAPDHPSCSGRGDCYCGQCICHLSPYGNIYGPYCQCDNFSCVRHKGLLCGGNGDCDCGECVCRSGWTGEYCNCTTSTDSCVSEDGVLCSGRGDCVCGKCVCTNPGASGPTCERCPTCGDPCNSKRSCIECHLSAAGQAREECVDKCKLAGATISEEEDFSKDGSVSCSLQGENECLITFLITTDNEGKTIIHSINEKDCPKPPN

| SMILES | IC50 |
| --- | --- |
| CO[C@H](C)CN(CCCCc1ccc2c(n1)NCCC2)CC[C@H](Nc1ncnc2cn[nH]c12)C(=O)O [Compound 79, (S)-2-((1H-pyrazolo[4,3-d]pyrimidin-7-yl)amino)-4-(((R)-2-methoxypropyl) (4-(5,6,7,8-tetrahydro-1,8-naphthyridin-2-yl)butyl)amino) butanoic acid] | < 50 nM |
| CO[C@H](C)CN(CCCCc1ccc2c(n1)NCCC2)CC[C@H](Nc1cc(-c2ccccc2)ncn1)C(=O)O [Compound 80, (S)-4-(((R)-2-methoxypropyl) (4-(5,6,7,8-tetrahydro-1,8-naphthyridin-2-yl)butyl)amino)-2-((6-phenylpyrimidin-4-yl)amino) butanoic acid] | < 50 nM |
| CO[C@H](C)CN(CCCCc1ccc2c(n1)NCCC2)CC[C@H](Nc1ncncc1-c1ccccc1)C(=O)O [Compound 81, (S)-4-(((R)-2-methoxypropyl) (4-(5,6,7,8-tetrahydro-1,8-naphthyridin-2-yl)butyl)amino)-2-((5-phenylpyrimidin-4-yl)amino) butanoic acid] | < 50 nM |
| Cn1ncc2c(N[C@@H](CCN(CCCCc3ccc4c(n3)NCCC4)CCOc3ccccc3)C(=O)O)ncnc21 [Compound 82, (S)-2-((1-methyl-1H-pyrazolo[3,4-d]pyrimidin-4-yl)amino)-4-((2-phenoxyethyl) (4-(5,6,7,8-tetrahydro-1,8-naphthyridin-2-yl)butyl)amino) butanoic acid] | < 50 nM |
| O=C(O)[C@H](CCN(CCCCc1ccc2c(n1)NCCC2)CCOc1ccccc1)Nc1ncc(Br)cn1 [Compound 83, (S)-2-((5-bromopyrimidin-2-yl)amino)-4-((2-phenoxyethyl) (4-(5,6,7,8-tetrahydro-1,8-naphthyridin-2-yl)butyl)amino) butanoic acid] | < 50 nM |
| Cn1ncc2c(N[C@@H](CCN(CCCCc3ccc4c(n3)NCCC4)CC(F)F)C(=O)O)ncnc21 [Compound 88, (S)-4-((2,2-difluoroethyl) (4-(5,6,7,8-tetrahydro-1,8-naphthyridin-2-yl)butyl)amino)-2-((1-methyl-1H-pyrazolo[3,4-d]pyrimidin-4-yl)amino) butanoic acid] | > 1000 nM |
| O=C(O)[C@H](CCN(CCCCc1ccc2c(n1)NCCC2)CCOc1ccccc1)Nc1ncc(C(F)(F)F)cn1 [Compound 89, (S)-4-((2-phenoxyethyl) (4-(5,6,7,8-tetrahydro-1,8-naphthyridin-2-yl)butyl)amino)-2-((5-(trifluoromethyl)pyrimidin-2-yl)amino) butanoic acid] | < 50 nM |
| O=C(O)[C@H](CCN(CCCCc1ccc2c(n1)NCCC2)CCOc1ccccc1)Nc1ncnc2[nH]ncc12 [Compound 90, (S)-2-((1H-pyrazolo[3,4-d]pyrimidin-4-yl)amino)-4-((2-phenoxyethyl) (4-(5,6,7,8-tetrahydro-1,8-naphthyridin-2-yl)butyl)amino) butanoic acid] | < 50 nM |
| O=C(O)[C@H](CCN(CCCCc1ccc2c(n1)NCCC2)CCOc1ccccc1)Nc1cc(-n2cccn2)ncn1 [Compound 91, (S)-2-((6-(1H-pyrazol-1-yl)pyrimidin-4-yl)amino)-4-((2-phenoxyethyl) (4-(5,6,7,8-tetrahydro-1,8-naphthyridin-2-yl)butyl)amino) butanoic acid] | < 50 nM |
| O=C(O)[C@H](CCN(CCCCc1ccc2c(n1)NCCC2)CCOc1ccccc1)Nc1ccnc(C(F)(F)F)n1 [Compound 92, (S)-4-((2-phenoxyethyl) (4-(5,6,7,8-tetrahydro-1,8-naphthyridin-2-yl)butyl)amino)-2-((2-(trifluoromethyl)pyrimidin-4-yl)amino) butanoic acid] | < 50 nM |
| O=C(O)[C@H](CCN(CCCCc1ccc2c(n1)NCCC2)CCOc1ccccc1)Nc1cc(-c2ccccc2)ncn1 [Compound 93, (S)-4-((2-phenoxyethyl) (4-(5,6,7,8-tetrahydro-1,8-naphthyridin-2-yl)butyl)amino)-2-((6-phenylpyrimidin-4-yl)amino) butanoic acid] | < 50 nM |
